Assay results taken from publication PMC8308845, “Discovery of Novel Chemical Series of OXA-48 β-Lactamase Inhibitors by High-Throughput Screening” (Pharmaceuticals, 2021).
“And” between values parts separate entries of the source, which are not always exact repeats. Identical values can stand only once.

How the values were obtained:
[1] = test system: K. pneumoniae ATCC BAA-2524; test: MIC by broth microdilution, β-lactam-resistant strain producing OXA-48; assay type: cell-based, Klebsiella pneumoniae; details: Klebsiella pneumoniae, ATCCBAA2524, no β-lactam, BLI tested at 32 µg/mL, read-out: MIC, BLI alone
Text: (§1) To evaluate the capability of restoring β-lactam susceptibility, the two most promising representatives of SC_2 (ID3) and SC_7 (ID2) were screened alone and in combination with ampicillin (AMP) and IMP against sensitive and resistant Gram-negative bacteria. Avibactam and tazobactam were also included in the MIC characterization as BLI reference compounds. Specifically, we used E. coli ATCC25922 as antibiotic-sensitive strain, while E. coli ATCC BAA-2523 and K. pneumoniae ATCC BAA-2524 as β-lactam-resistant bacteria, producing OXA-48 carbapenemase.
(§2) Test compounds and tazobactam were tested at 32 µg/mL, while avibactam was applied at 4 µg/mL. […] Both antibiotics were selected for the combination study as they can be hydrolyzed by the target OXA-48 enzyme.
(§3) MIC values were determined by the broth dilution method and interpreted using published guidelines described by Clinical and Laboratory Standards Institute (CLSI).
(§4) All BLIs were dissolved in 100% DMSO and they were tested at a fixed concentration of 32 µg/mL and 1% of DMSO final concentration. Avibactam was used as reference β-lactamase inhibitor. All antimicrobials were prepared in line with CLSI susceptibility testing standards. AMP (USP # 1033000; batch no. K1M493) was dissolved at 5.12 mg/mL, IMP (USP # 1337809; batch no. R038R0) and avibactam (Biochem # NXL 104; batch no. 20180726) were dissolved at 1.28 mg/mL in the respective solvents recommended by CLSI (2). Solutions at 4X the final concentrations of the test range were made in Cation adjusted Mueller-Hinton broth (CA-MHB, BD # 212322; batch no. 6117994; Expiry date: 29.02.2020) by serial dilutions, and then diluted 2-fold with CA-MHB (for antimicrobials alone), or with the BLIs/avibactam (for combinations of new/reference inhibitors and antimicrobials). Moreover, all BLIs were tested alone at a fixed concentration of 32 μg/mL. The final concentration of DMSO in the test tubes was 1% for each different combination.
(§5) 50 μL of each well were then transferred from the masterblock into 96-well plates to whom were then added 50 μL of the final inoculum. MIC tests were performed by broth microdilution in line with CLSI susceptibility testing standards. Bacterial inocula were prepared at ca. 1 × 10^6 CFU/mL by diluting 100-fold a 0.5 McFarland suspension in CA-MHB with TES (TREK Diagnostic Systems, Product code: T3462; Batch: 356347; Expiry date: 12-Jun-2019). 50 μL of antibacterial solutions at 2 × the final concentrations were diluted 2-fold with 50 μL of inoculum to give a final inoculum of ca. 5 × 10^5 CFU/mL and desired test concentrations of antibacterial agents. Test plates were incubated according to CLSI guidelines and read visually. MIC values corresponded to the first well with no visible growth.

E. coli ATCC BAA-2523 = test: as above; assay type: cell-based, Escherichia coli; details: Escherichia coli, ATCCBAA2523, no β-lactam, BLI tested at 32 µg/mL, read-out: MIC, BLI alone
Text: as §1, §2, §3, §4, §5

OXA-48 = biological target: T1, OXA-48 (Klebsiella pneumoniae, UniProt Q6XEC0); test: OXA-48 primary enzymatic assay (nitrocefin substrate, fluorescence-quenching readout); assay type: biochemical; details: dose–response, median of triplicate wells; 15 min preincubation, 25 µM nitrocefin
T1 construct: made in house; host or cells: E. coli BL21(DE3), T7 expression system
T1 sequence (Q6XEC0 23-265, looked up): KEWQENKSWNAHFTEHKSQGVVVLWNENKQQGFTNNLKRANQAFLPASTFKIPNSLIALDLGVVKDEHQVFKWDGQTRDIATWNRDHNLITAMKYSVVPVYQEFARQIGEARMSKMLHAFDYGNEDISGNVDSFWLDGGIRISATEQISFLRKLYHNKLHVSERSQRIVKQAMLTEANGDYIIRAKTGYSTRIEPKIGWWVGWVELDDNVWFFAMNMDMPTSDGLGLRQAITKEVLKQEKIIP
Experimental: After an initial pilot run (three plates, consisting of 960 randomly selected compounds), the primary screening of the subset plates was carried out at 20 µM in single point against OXA-48 enzyme in a nitrocefin-based assay, using the fluorescence-quenching readout. This enzymatic assay employs the cephalosporin nitrocefin as OXA-48 substrate and takes advantage of the fluorescent properties of white microtiter plates. Chromogenic nitrocefin is hydrolyzed by β-lactamases to yield a product with increased absorbance properties (~495 nm) that quenches the plate fluorescence by absorbing the plate’s emission light. In this assay, test compounds that inhibit OXA-48 catalytic activity are predicted to reduce nitrocefin quenching of plate fluorescence, resulting in a quantitative increase in well fluorescence (ON-system for inhibitors). The nitrocefin-based epi-absorbance readout system has been successfully applied in HTS campaigns on other β-lactamases, such as IMP-1 and VIM-2, with the identification of inhibitors belonging to novel scaffolds displaying a favourable degree of selectivity and sub-micromolar potency.
The screening results were expressed as activity percent. […] Overall, the primary assay robustness was good, with Robust Z Prime factor (RZ′) equal to 0.86.
In total, 256 active molecules (125 from the subset and 131 from the full set) were then assayed in dose–response at eight concentrations from 60 to 0.002 µM with interplate triplicate data points.
The blaOXA gene coding for the OXA-48 ß-lactamase, originally cloned from the K. pneumonia 11978 (a clinical isolate from Istanbul Faculty Hospital, Istanbul, Turkey) was overexpressed via a T7 expression system in E. coli BL21(DE3), and its product, native protein, (final yield of 30 mg/L of culture) was subjected to several purification steps, including ion-exchange chromatography with Q-Sepharose and 20 mM Tris-HCl buffer (pH 9.0), followed by chromatography with S-Sepharose columns and 100 mM sodium phosphate buffer (pH 5.8). Elution of the beta-lactamase was performed with a K2SO4 gradient. Peaks of beta-lactamase activity were concentrated and were dialyzed with 100 mM phosphate buffer (pH 7.0). The OXA-48 enzyme was purified to homogeneity (with a degree of purity around 95.4%.)-as measured by 12% SDS PAGE [23]. OXA-48 protein stock solution (2 mg/mL) was finally prepared in 20 mM Hepes (pH 8,1). OXA-48 β-lactamase specific activity was measured by following the hydrolysis of 100 μM nitrocefin (ε: 17,000 M-1 cm^−1 at 482 nm; Δε: 15,000 M-1 cm^−1 at 482 nm) and corresponding to 60.45 μmoles min^−1 mg^−1 of OXA-48 (kcat = 28.85 s^−1) enzyme. A MW of 28,147 g/mol, calculated from the enzyme sequence was confirmed by MALDI-TOF analysis with a Mass error of ± 2.8 Da.
The primary assay was developed to monitor the enzymatic activity of OXA-48 taking advantage of the spectroscopic properties of white microtiter plates (Optiplate-384, PerkinElmer, #6007290), as indicated by Zuck et al.. Nitrocefin is chromogenic substrate for beta-lactamases with λmax = 395 nm (yellow). Upon hydrolysis by OXA-48, nitrocefin yields (2R)-2-[(R)-carboxy[2-(thiophen-2-yl)acetamido]methyl]-5-[(E)-2-(2,4-dinitrophenyl)ethenyl]-3,6-dihydro-2H-1,3-thiazine-4-carboxylic acid, with increased absorbance properties at λmax = 495 nm. Spectroscopic features of the reaction product are exploited to quench the plate intrinsic fluorescence by absorbing the plate’s emission light, which can be monitored by exciting the reaction at 485 nm and recording the emission at 520 nm. Therefore, the primary assay for HTS was an ON-assay, in which compounds targeting OXA-48 were predicted to elicit an increase of the fluorescence signal.
The primary assay was performed in reaction buffer (20 mM Hepes pH 8.0, 12.5 mM NaCl, 0.005% BSA, 0.0005% Brij-35) in the presence of 0.0014 ng/µL OXA-48 and 25 µM nitrocefin in a final volume of 20 µL/well in 384 MTP format. […]

E. coli ATCC25922 = test: MIC by broth microdilution, antibiotic-sensitive strain; assay type: cell-based; details: Escherichia coli, no β-lactam, BLI tested at 32 µg/mL, read-out: MIC, BLI alone
Text: as §1, §2, §3, §4, §5

**Q.** With O=C(O)c1ccc(/C=N/n2c(S)nnc2-c2ccc(Cl)cc2)cc1 [ID3] as the molecule, how does the MIC [1] read?
**A.** > 32 µg/mL

**Q.** What about the MIC (E. coli ATCC BAA-2523) of the same molecule?
**A.** > 32 µg/mL

**Q.** What about the AC50 (OXA-48) of the same molecule?
**A.** 723 nM and 720 nM

**Q.** And the MIC (E. coli ATCC25922)?
**A.** > 32 µg/mL
